pIC50: −log10 of the molar value.
What was measured:
Format in all cases: biochemical
[1] = biological target: T1, JAK1 (Homo sapiens, UniProt P23458); assay: Z'-LYTE kinase assay, JAK1 tyrosine phosphorylation activity; conditions: read-out: JAK 1 IC50
T1 construct: 5 μl of catalytic domain recombinant Kinase enzyme+Tyr peptide substrate (Invitrogen, Calif.); purchased Invitrogen
Summary of the method: (§1)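 Catalytic-domain recombinant enzymes phosphorylate a coumarin/fluorescein-labelled Tyr6 peptide for 1 h at room temperature in the presence of ATP and compound (1% DMSO). Development Reagent then cleaves non-phosphorylated peptide over 1 h, and emission ratio 445/520 nm (ex 400 nm) gives percent phosphorylation; IC50 by 4-parameter logistic model.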

[2] = biological target: T2, JAK2 (Homo sapiens, UniProt O60674); assay: Z'-LYTE kinase assay, JAK2 tyrosine phosphorylation activity
T2 construct: 5 μl of catalytic domain recombinant Kinase enzyme+Tyr peptide substrate (Invitrogen, Calif.); purchased Invitrogen
T2 sequence (O60674 849-1124 limits assumed): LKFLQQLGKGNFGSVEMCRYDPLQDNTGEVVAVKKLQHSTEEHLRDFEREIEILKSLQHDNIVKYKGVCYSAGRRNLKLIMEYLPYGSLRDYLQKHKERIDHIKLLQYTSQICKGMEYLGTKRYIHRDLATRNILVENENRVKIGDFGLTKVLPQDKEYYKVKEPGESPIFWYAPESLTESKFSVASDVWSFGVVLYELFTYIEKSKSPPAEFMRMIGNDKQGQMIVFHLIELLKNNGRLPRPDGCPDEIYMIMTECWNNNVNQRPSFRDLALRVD
Summary of the method: as §1

[3] = biological target: T3, JAK3 (Homo sapiens, UniProt P52333); assay: Z'-LYTE kinase assay, JAK3 tyrosine phosphorylation activity
T3 construct: 5 μl of catalytic domain recombinant Kinase enzyme+Tyr peptide substrate (Invitrogen, Calif.); purchased Invitrogen
T3 sequence (P52333 822-1111 limits assumed): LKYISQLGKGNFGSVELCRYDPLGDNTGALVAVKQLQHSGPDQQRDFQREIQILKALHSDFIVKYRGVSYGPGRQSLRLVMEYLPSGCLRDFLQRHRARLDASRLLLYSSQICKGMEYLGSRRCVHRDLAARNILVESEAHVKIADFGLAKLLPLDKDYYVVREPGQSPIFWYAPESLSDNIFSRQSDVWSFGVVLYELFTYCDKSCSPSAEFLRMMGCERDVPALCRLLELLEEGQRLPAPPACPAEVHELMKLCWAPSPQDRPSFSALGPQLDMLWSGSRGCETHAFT
Summary of the method: as §1

[4] = biological target: T4, TYK2 (Homo sapiens, UniProt P29597); assay: Z'-LYTE kinase assay, TYK2 tyrosine phosphorylation activity
T4 construct: 5 μl of catalytic domain recombinant Kinase enzyme+Tyr peptide substrate (Invitrogen, Calif.); purchased Invitrogen
T4 sequence (P29597 897-1176 limits assumed): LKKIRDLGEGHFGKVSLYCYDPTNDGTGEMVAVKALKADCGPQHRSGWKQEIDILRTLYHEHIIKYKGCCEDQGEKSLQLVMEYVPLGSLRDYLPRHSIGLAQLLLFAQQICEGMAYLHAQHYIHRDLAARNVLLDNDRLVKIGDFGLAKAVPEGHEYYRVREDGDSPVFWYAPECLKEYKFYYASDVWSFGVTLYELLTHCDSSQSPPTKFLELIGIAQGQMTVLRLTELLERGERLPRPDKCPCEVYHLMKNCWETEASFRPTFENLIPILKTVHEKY
Summary of the method: as §1

T1 sequence (P23458 875-1153 limits assumed): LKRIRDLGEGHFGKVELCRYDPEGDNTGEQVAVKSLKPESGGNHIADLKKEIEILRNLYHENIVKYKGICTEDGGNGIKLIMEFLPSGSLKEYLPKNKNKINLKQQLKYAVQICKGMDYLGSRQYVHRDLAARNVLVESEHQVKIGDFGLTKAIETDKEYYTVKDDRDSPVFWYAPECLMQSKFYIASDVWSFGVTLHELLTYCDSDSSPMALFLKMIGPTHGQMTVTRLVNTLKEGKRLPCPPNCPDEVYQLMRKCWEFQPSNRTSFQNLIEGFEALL

Row | pIC50 [1] | pIC50 [2] | pIC50 [3] | pIC50 [4] | Structure (SMILES)
1 | < 6.00 | 6.00 to 7.00 | 7.00 to 8.00 | 7.00 to 8.00 | CC(=O)Nc1cc(Cl)cc(Nc2ncc(C(N)=O)c(NCc3ccccc3)n2)c1 [Example 260, 2-(3-acetamido-5-chlorophenylamino)-4-(benzylamino)pyrimidine-5-carboxamide]
2 | 6.00 to 7.00 | 7.00 to 8.00 | 8.00 to 9.00 | 7.00 to 8.00 | CC(=O)Nc1cccc(Nc2ncc(C(N)=O)c(NCc3cc(F)ccc3F)n2)c1 [Example 102, 2-(3-acetamidophenylamino)-4-(2,5-difluorobenzylamino)pyrimidine-5-carboxamide]
3 | 6.00 to 7.00 | 6.00 to 7.00 | 7.00 to 8.00 | 7.00 to 8.00 | CC(C)CCNc1cc(Nc2cccc(NC(=O)N3CCCC3)c2)ncc1C(N)=O [Example 328, 4-(isopentylamino)-6-(3-(pyrrolidine-1-carboxamido)phenylamino)nicotinamide]
4 | < 6.00 | < 6.00 | < 6.00 | < 6.00 | NC(=O)c1cnc(Nc2cccc(N(C(=O)C3CC3)C3CC3)c2)nc1NCc1ccccc1 [Example 151, 4-(benzylamino)-2-(3-(N-cyclopropylcyclopropanecarboxamido)phenylamino)pyrimidine-5-carboxamide]
5 | < 6.00 | 7.00 to 8.00 | 7.00 to 8.00 | < 6.00 | CC(=O)Nc1cccc(Nc2ncc(C(N)=O)c(Nc3cccc4nn(C)cc34)n2)c1 [Example 186, 2-(3-acetamidophenylamino)-4-(2-methyl-2H-indazol-4-ylamino)pyrimidine-5-carboxamide]
6 | 6.00 to 7.00 | 7.00 to 8.00 | 7.00 to 8.00 | 7.00 to 8.00 | CNC(=O)Nc1cc(Nc2ncc(C(N)=O)c(NCC3CC3)n2)ccc1Cl [Example 178, 2-(4-chloro-3-(3-methylureido)phenylamino)-4-(cyclopropylmethylamino)pyrimidine-5-carboxamide]
7 | 6.00 to 7.00 | 7.00 to 8.00 | 8.00 to 9.00 | 6.00 to 7.00 | CC(=O)N(c1cccc(Nc2ncc(C(N)=O)c(N[C@H](C)c3ccccc3)n2)c1)C1CC1 [Example 161, (R)-2-(3-(N-cyclopropylacetamido)phenylamino)-4-(1-phenylethylamino)pyrimidine-5-carboxamide]
8 | < 6.00 | < 6.00 | < 6.00 | < 6.00 | NC(=O)c1cnc(Nc2ccc(Cl)c(NC(=O)N3CCCC3)c2)nc1NCC1CCC1 [Example 263, 2-(4-chloro-3-(pyrrolidine-1-carboxamido)phenylamino)-4-(cyclobutylmethylamino)pyrimidine-5-carboxamide]
9 | 6.00 to 7.00 | 6.00 to 7.00 | 7.00 to 8.00 | 6.00 to 7.00 | CN(C(=O)N1CCCC1)c1cc(Nc2ncc(C(N)=O)c(NCc3ccccc3)n2)ccc1Cl [Example 241, 4-(benzylamino)-2-(4-chloro-3-(N-methylpyrrolidine-1-carboxamido)phenylamino)pyrimidine-5-carboxamide]
10 | 7.00 to 8.00 | 6.00 to 7.00 | 7.00 to 8.00 | 7.00 to 8.00 | NC(=O)c1cnc(Nc2ccc(Cl)c(NC(=O)N3CCCC3)c2)nc1NC1CCCC1 [Example 167, 2-(4-chloro-3-(pyrrolidine-1-carboxamido)phenylamino)-4-(cyclopentylamino)pyrimidine-5-carboxamide]
11 | 6.00 to 7.00 | 7.00 to 8.00 | 7.00 to 8.00 | 7.00 to 8.00 | COc1ccc(Nc2ncc(C(N)=O)c(NCc3ccccc3)n2)cc1N(C)C(=O)N1CCCC1 [Example 239, 4-(benzylamino)-2-(4-methoxy-3-(N-methylpyrrolidine-1-carboxamido)phenylamino)pyrimidine-5-carboxamide]
12 | 7.00 to 8.00 | 7.00 to 8.00 | 8.00 to 9.00 | 7.00 to 8.00 | CC[C@H](C)Nc1nc(Nc2cccc(NC(=O)N3CCCC3)c2)ncc1C(N)=O [Example 145]
13 | 6.00 to 7.00 | 6.00 to 7.00 | 7.00 to 8.00 | 6.00 to 7.00 | CC(=O)Nc1cccc(Nc2cc(NCc3cccc(Cl)c3)c(C(N)=O)cn2)c1 [Example 337, 6-(3-acetamidophenylamino)-4-(3-chlorobenzylamino)nicotinamide]
14 | 7.00 to 8.00 | 8.00 to 9.00 | 8.00 to 9.00 | 7.00 to 8.00 | CC(=O)Nc1cc(Nc2ncc(C(N)=O)c(Nc3cccc4nsnc34)n2)ccc1OCCN1CCCC1 [Example 227, 2-(3-acetamido-4-(2-(pyrrolidin-1-yl)ethoxy)phenylamino)-4-(benzo[c][1,2,5]thiadiazo-4-ylamino)pyrimidine-5-carboxamide]
15 | 7.00 to 8.00 | 6.00 to 7.00 | 7.00 to 8.00 | 6.00 to 7.00 | CC(=O)Nc1cccc(Nc2ncc(C(=O)O)c(NCC3CCNC3)n2)c1 (stereo not shown) [Example 226, 2-(3-acetamidophenylamino)-4-(pyrrolidin-3-ylmethylamino)pyrimidine-5-carboxylic acid]
16 | < 6.00 | < 6.00 | < 6.00 | < 6.00 | CNC(=O)c1cnc(Nc2cccc(NC(C)=O)c2)nc1NCc1ccccc1 [Example 112, 2-(3-acetamidophenylamino)-4-(benzylamino)-N-methylpyrimidine-5-carboxamide]
17 | 7.00 to 8.00 | 8.00 to 9.00 | 8.00 to 9.00 | 7.00 to 8.00 | CC(=O)Nc1cc(Nc2ncc(C(N)=O)c(NCc3cccc(F)c3)n2)ccc1OCCN1CCCC1 [Example 223, 2-(3-acetamido-4-(2-(pyrrolidin-1-yl)ethoxy)phenylamino)-4-(3-fluorobenzylamino)pyrimidine-5-carboxamide]
18 | 7.00 to 8.00 | 7.00 to 8.00 | 8.00 to 9.00 | 7.00 to 8.00 | CC(=O)Nc1cc(Nc2ncc(C(N)=O)c(NCc3ccccc3)n2)ccc1Cl [Example 2, 2-(3-acetamido-4-chlorophenylamino)-4-(benzylamino)pyrimidine-5-carboxamide]
19 | < 6.00 | < 6.00 | 7.00 to 8.00 | 6.00 to 7.00 | CN(C)C(=O)Nc1ccc(F)c(Nc2ncc(C(N)=O)c(NCc3ccccc3)n2)c1 [Example 201, 4-(benzylamino)-2-(5-(3,3-dimethylureido)-2-fluorophenylamino)pyrimidine-5-carboxamide]
20 | 7.00 to 8.00 | 7.00 to 8.00 | 7.00 to 8.00 | 7.00 to 8.00 | COCC(=O)N(C)c1cccc(Nc2ncc(C(N)=O)c(NCC3CC3)n2)c1 [Example 125, 4-(cyclopropylmethylamino)-2-(3-(2-methoxy-N-methylacetamido)phenylamino)pyrimidine-5-carboxamide]
21 | 7.00 to 8.00 | 7.00 to 8.00 | 7.00 to 8.00 | 7.00 to 8.00 | CC(=O)Nc1cccc(Nc2ncc(C(N)=O)c(NC3Cc4ccccc4C3)n2)c1 [Example 92, 2-(3-acetamidophenylamino)-4-(2,3-dihydro-1H-inden-2-ylamino)pyrimidine-5-carboxamide]
22 | < 6.00 | < 6.00 | 6.00 to 7.00 | 6.00 to 7.00 | CC(=O)Nc1cccc(Nc2cc(NCCc3ccccc3)c(C(N)=O)cn2)c1 [Example 338, 6-(3-acetamidophenylamino)-4-(phenethylamino)nicotinamide]
23 | < 6.00 | 6.00 to 7.00 | 6.00 to 7.00 | 6.00 to 7.00 | CC(=O)Nc1cccc(Nc2cc(NCC3CC3)c(C(N)=O)cn2)c1 [Example 329, 6-(3-acetamidophenylamino)-4-(cyclopropylmethylamino)nicotinamide]
24 | 7.00 to 8.00 | 7.00 to 8.00 | 7.00 to 8.00 | 7.00 to 8.00 | CC(=O)Nc1cccc(Nc2ncc(C(N)=O)c(N[C@H]3CCc4ccccc43)n2)c1 [Example 96, (S)-2-(3-acetamidophenylamino)-4-(2,3-dihydro-1H-inden-1-ylamino)pyrimidine-5-carboxamide]
25 | 6.00 to 7.00 | 7.00 to 8.00 | 8.00 to 9.00 | 7.00 to 8.00 | C[C@@H](Nc1nc(Nc2ccc(Cl)c(NC(=O)N3CCOCC3)c2)ncc1C(N)=O)c1ccccc1 [Example 183, (R)—N-(5-(5-carbamoyl-4-(1-phenylethylamino)pyrimidin-2-ylamino)-2-chlorophenyl)morpholine-4-carboxamide]
26 | 6.00 to 7.00 | 6.00 to 7.00 | 7.00 to 8.00 | 6.00 to 7.00 | CC(=O)Nc1cccc(Nc2ncc(C(N)=O)c(NCC3CCN(C(=O)OC(C)(C)C)C3)n2)c1 (stereo not shown) [Example 225, tert-butyl 3-((2-(3-acetamidophenylamino)-5-carbamoylpyrimidin-4-ylamino)methyl)pyrrolidine-1-carboxylate]
27 | < 6.00 | < 6.00 | 6.00 to 7.00 | < 6.00 | CC(=O)Nc1cccc(Nc2cc(NCc3ccc4c(c3)OCO4)c(C(N)=O)cn2)c1 [Example 334, 6-(3-acetamidophenylamino)-4-(benzo[d][1,3]dioxol-5-ylmethylamino)nicotinamide]
28 | 7.00 to 8.00 | 7.00 to 8.00 | 8.00 to 9.00 | 8.00 to 9.00 | NC(=O)c1cnc(Nc2cccc(NC(=O)[C@@H]3CCCO3)c2)nc1NCc1ccccc1 [Example 206, (S)-4-(benzylamino)-2-(3-(tetrahydrofuran-2-carboxamido)phenylamino)pyrimidine-5-carboxamide]

Source: US8853230B2, “Inhibitors of JAK” (Portola Pharmaceuticals, Inc., priority 2009, dated 2014)
